Experimental data from patent US20250177537A1, “AN ANTIBIOTIC, METHOD OF PREPARATION AND METHOD OF TREATMENT THEREOF” (National Taiwan University, priority 2023, published 2025).
Values after ≈ are worked out from the molar mass of the structure shown. Where two headings read alike, the source gives them in different places. Bridge positions count the residues as written; N and C are the ends. Square brackets hold non-standard residues; d marks the D form. Peptide text beside a SMILES is read from it. * marks the point of attachment. d(aThr) = C[C@@H](O)[C@@H](N)C(=O)O; Palmitoyl = CCCCCCCCCCCCCCCC(=O)*; dPip = O=C(O)[C@H]1CCCCN1; hSer = N[C@@H](CCO)C(=O)O; Dap = NC[C@H](N)C(=O)O

Legend:
[1] = test system: Bacillus subtilis; experiment: Growth inhibitory zone assay; type: cell-based; conditions: mixed with B1 at 50 mM each, 12 hours, room temperature
Experimental: The antimicrobial activities of our peptide (B1) in combination with various boron species were tested by the growth inhibitory zone assay (FIG. 26). B1 was mixed with various boron species at 50 mM each (final concentration). These mixtures were then spotted on a lawn of Bacillus subtilis. After 12 hours of incubation at room temperature, combinations effective at inhibiting bacterial growth would appear as a circular zone.

[2] = test system: Staphylococcus species; experiment: Activity spectrum MIC; type: cell-based; conditions: PBA 50 μg/mL
[3] = test system: Rhodococcus hoagii; experiment: Activity spectrum MIC; type: cell-based; conditions: PBA 50 μg/mL
[4] = test system: Streptococcus species; experiment: Activity spectrum MIC; type: cell-based; conditions: PBA 50 μg/mL
[5] = test system: Pseudomonas aeruginosa; experiment: Activity spectrum MIC; type: cell-based; conditions: PBA 50 μg/mL
[6] = test system: methicillin-resistant strains (MRSA); experiment: Activity spectrum MIC; type: cell-based, Staphylococcus; conditions: PBA 50 μg/mL
[7] = test system: HEK293T cells; experiment: cells; type: cell-based; conditions: 24 h
Experimental: HEK293T cells were cultured in Dulbecco's Modified Eagle's Medium supplemented with 10% fetal bovine serum and 1% Antibiotic antimycotic at 37° C. under humidified atmosphere and 5% CO2. Cytotoxicity assays began by seeding 2×10^4 HEK293T cells per well in a 96-well plate. Cells were given 20 to 24 h to adhere, washed with fresh medium, and then a 2-fold dilution series of the compounds of interest were added. The highest concentration tested for S1, B1, and PBA were 128, 128, and 1,280 μg/mL, respectively; for the B1-plus-PBA series, the PBA concentration was held constant at 5 μg/mL while the B1 concentration varied. After incubation for 24 h, the medium was discarded, the cells rinsed with PBS buffer, and 100 μL of 0.5 mg/mL MTT in […] was added to each well. The plate was incubated for 2 h before discarding the MTT solution. The cells were wash with PBS, and then the resulting purple crystals were dissolved by DMSO (100 μL per well). Absorbance at 570 nm for each well was recorded, and cell viability (%) was calculated as the ratio of the absorbance the compound-treated well vs. the no-compound well. This assay was performed in triplicate.

[8] = test system: B. cereus; experiment: Activity spectrum MIC; type: cell-based; conditions: PBA 50 μg/mL
[9] = test system: E. faecalis; experiment: Activity spectrum MIC; type: cell-based; conditions: PBA 50 μg/mL
[10] = test system: Escherichia coli; experiment: Activity spectrum MIC; type: cell-based; conditions: PBA 50 μg/mL
[11] = 31P NMR monitoring of complex formation; type: binding; conditions: B1/PBA/C10P 1:2:1, 10% D2O
Experimental: NMR experiments were conducted on a Bruker AVIII 400 (400 MHZ) spectrometer. Chemical shifts (δ) are relative to tetramethylsilane, boric acid, and phosphoric acid for ^1H, ^11B, and ^31P spectra, respectively. The ^11B spectrum of PBA (20 μL, 10.0 mg/mL) in 10% D2O (550 μL) was first obtained. Next, C10P (17 μL, 16 mg/mL) was added directly into the NMR tube, and both the ^11B and ^31P spectra were obtained. B1 (1.2 mg, powder) was then added, followed spectra acquisition. Finally, CaCl2) was added to the solution in the NMR tube, so that the final calcium concentration is ˜5 mM. Note that the ^31P spectrum of C10P alone was collected separately.
Mass spectrometry (MS) and nuclear magnetic resonance (NMR) offered additional evidence of complex formation at the molecular level. High-resolution native electrospray ionization mass spectrometry (HR-NESI-MS) is commonly used to study noncovalent interactions.^[15] Using HR-NESI-MS, we observed the expected m/z for binary, ternary, and quaternary complexes at both the positive and negative modes (FIGS. 5B and 5C, FIGS. 15-18 and FIGS. 23-24). We then performed phosphorous (^31P) and boron (^11B) NMR to monitor the complex formation process. […] When B1 was added to the C10P/PBA mixture, no phosphorous signal could be detected at δ 3 or greater, and two new peaks at δ 0.4 and 0.0 appeared. […]

[12] = test system: Bacillus subtilis; conditions: for antimicrobial activity: absence of PBA; for PBA dependence of bacterial growth suppression: with vs without PBA; for MIC: no PBA
Experimental: We then investigated the boron dependence of B1 by determining the MIC of B1 across […] of PBA concentrations (0.5 μg/mL to 100 μg/mL, FIG. 4B).

[13] = test system: vancomycin-resistant strains (VRE); experiment: Activity spectrum MIC; type: cell-based, Enterococcus; conditions: PBA 50 μg/mL

O=Cc1ccccc1B(O)O [2-formylphenylboronic acid]
growth inhibitory zone, boron species in combination with B1 [1]: effective

OB(O)c1cc(C(F)(F)F)cc(C(F)(F)F)c1 [3,5-(bis(trifluoromethyl)phenyl) boronic acid]
growth inhibitory zone, boron species in combination with B1 [1]: effective

Cc1cc(C)cc(B(O)O)c1 [3,5-dimethylphenylboronic acid]
growth inhibitory zone, boron species in combination with B1 [1]: effective

OB(O)c1cccc(O)c1 [3-hydroxylphenylboronic acid]
growth inhibitory zone, boron species in combination with B1 [1]: effective

OB(O)c1cccnc1 [3-pyridylboronic acid]
growth inhibitory zone, boron species in combination with B1 [1]: effective

CSc1ccc(B(O)O)cc1 [4-(methylthio) phenylboronic acid]
growth inhibitory zone, boron species in combination with B1 [1]: effective

Nc1ccc(B(O)O)cc1 [4-aminophenylboronic acid]
growth inhibitory zone, boron species in combination with B1 [1]: effective

N#Cc1ccc(B(O)O)cc1 [4-cyanophenylboronic acid]
growth inhibitory zone, boron species in combination with B1 [1]: effective

OB(O)c1ccc(F)cc1 [4-fluorophenylboronic acid]
growth inhibitory zone, boron species in combination with B1 [1]: effective

OB(O)c1ccc(O)cc1 [4-hydroxylphenylboronic acid]
growth inhibitory zone, boron species in combination with B1 [1]: effective

COC(=O)c1ccc(B(O)O)cc1 [4-methoxycarbonyl phenylboronic acid]
growth inhibitory zone, boron species in combination with B1 [1]: effective

COc1ccc(B(O)O)cc1 [4-methoxyphenylboronic acid]
growth inhibitory zone, boron species in combination with B1 [1]: effective

OB(O)c1ccncc1 [4-pyridylboronic acid]
growth inhibitory zone, boron species in combination with B1 [1]: effective

Cc1ccc(B(O)O)cc1 [4-tolylboronic acid]
growth inhibitory zone, boron species in combination with B1 [1]: effective

CCCCCCCCCCCCCCCC(=O)N[C@@H](CO)C(=O)N[C@H]1CNC(=O)[C@@H]2CCCN2C(=O)[C@H]([C@@H](C)CC)NC(=O)[C@@H]([C@@H](C)O)NC(=O)CNC(=O)[C@H](CO)NC(=O)CNC(=O)[C@H](CC(=O)O)NC(=O)CNC(=O)[C@H]2CCCCN2C1=O [B1] (Palmitoyl-S[Dap][dPip]GDGSG[d(aThr)]IP; lactam 2-C)
growth inhibition [2]: inhibited the growth | growth inhibition [3]: inhibited the growth | growth inhibition [4]: inhibited the growth | antibacterial activity [5]: no activity | susceptibility [6]: similarly susceptible | IC50 [7]: greater than 128 μg/mL | growth inhibition [8]: inhibited the growth | growth inhibition [9]: inhibited the growth | antibacterial activity [10]: no activity | C10P sequestration [11]: sequestered all C10P | dependence of antibacterial activity on calcium ([12]; LB, PBA 50 μg/mL (0.41 mM), FIG. 4A): completely independent of calcium | antimicrobial activity ([12]; no calcium supplements): none of them were active | response of antimicrobial activity to varying calcium concentration ([12]; fixed PBA 100 μg/mL (0.82 mM)): no change | antimicrobial activity when no calcium was added ([12]; fixed PBA 100 μg/mL (0.82 mM), no calcium added): equally effective | PBA dependence of bacterial growth suppression [12]: only able to suppress bacterial growth in the presence of PBA | susceptibility [13]: similarly susceptible

CCCCCCCCCCCCCCCC(=O)N[C@@H](CO)C(=O)N[C@H]1CNC(=O)[C@@H]2CCCN2C(=O)[C@H]([C@@H](C)CC)NC(=O)[C@@H]([C@@H](C)O)NC(=O)CNC(=O)[C@H](CCO)NC(=O)CNC(=O)[C@H](CC(=O)O)NC(=O)CNC(=O)[C@H]2CCCCN2C1=O [B3, Ser-Dap-Pip-Gly-Asp-Gly-Hse-Gly-Thr-Ile-Pro] (Palmitoyl-S[Dap][dPip]GDG[hSer]G[d(aThr)]IP; lactam 2-C)
antimicrobial activity ([12]; no calcium supplements): none of them were active | PBA dependence of bacterial growth suppression [12]: only able to suppress bacterial growth in the presence of PBA

CCCCCCCCCCCCCCCC(=O)N[C@@H](CCO)C(=O)N[C@H]1CNC(=O)[C@@H]2CCCN2C(=O)[C@H]([C@@H](C)CC)NC(=O)[C@@H]([C@@H](C)O)NC(=O)CNC(=O)[C@H](CO)NC(=O)CNC(=O)[C@H](CC(=O)O)NC(=O)CNC(=O)[C@H]2CCCCN2C1=O [B4] (Palmitoyl-[hSer][Dap][dPip]GDGSG[d(aThr)]IP; lactam 2-C)
antimicrobial activity ([12]; 5 mM calcium): weak antimicrobial activity | antimicrobial activity ([12]; no calcium supplements): none of them were active | effect of calcium concentration on MIC ([12]; calcium 5 to 0.5 mM, PBA present): unaffected

OB(O)c1ccccc1 [PBA, phenylboronic acid, reference compound]
growth inhibitory zone, boron species in combination with B1 [1]: effective | IC50 ([7]; Homo sapiens, HEK-293T): > 128 µg/mL

CCCCCCCCCCCCCCCC(=O)N[C@@H](CC(=O)O)C(=O)N[C@H]1CNC(=O)[C@@H]2CCCN2C(=O)[C@H]([C@@H](C)CC)NC(=O)[C@@H]([C@@H](C)O)NC(=O)CNC(=O)[C@H](CC(=O)O)NC(=O)CNC(=O)[C@H](CC(=O)O)NC(=O)CNC(=O)[C@H]2CCCCN2C1=O [S1, reference compound] (Palmitoyl-D[Dap][dPip]GDGDG[d(aThr)]IP; lactam 2-C (inferred))
potency in the presence of PBA ([12]; PBA 100 μg/mL (0.82 mM)): dramatically decreased | MIC ([12]; [Ca2+]=0.5 mM): 16 µg/mL (≈ 12.7 µM) | MIC ([12]; calcium 5 mM): 4 µg/mL (≈ 3.17 µM)
